# Source: patent EP0884054B9, “Fixed-dose association of an angiotensin-converting enzyme inhibitor and of a calcium channel antagonist for the treatment of cardiovascular illnesses” (Procter & Gamble Pharmaceuticals S.A.R.L., priority 1997, dated 1998)
# Counter-ions that a name gives are not always drawn. Like-named read-outs stand apart in the source and are kept apart here.
# Assays:
# [1] = tested on: rat experimentally hypertense by aortic coarctation; experiment: Antihypertensive activity in the rat experimentally hypertense by aortic coarctation (conscious animal); type: in vivo; settings: for distolic arterial pressure / diastolic arterial pressure / systolic arterial pressure: mean(SD)
# Protocol: The antihypertensive activity of the association of enalapril and nitrendipine was tested in comparison with each one of the isolated components in an experimental model of hypertension by arterial coarction in the rat. Measurement of the arterial pressure was carried out with the animal conscious. The doses tested were as follows: • Enalapril maleate 1 mg/kg (p.o.) • Nitrendipine 3 mg/kg (p.o.) • Enalapril maleate and Nitrendipine (1 and 3) mg/kg (p.o.) • Enalapril maleate and Nitrendipine (0.5 and 1.5) mg/kg (p.o.) The control group received the carrier (CMC Carboxymethylcellulose 1% en distilled water), the administration volume being […] (p.o.).
# [2] = tested on: male patients with slight-moderate AHT; experiment: Placebo-controlled open clinical trial in slight-moderate AHT; type: in vivo; settings: single-drug treatment, 5 mg once a day for 2 weeks (9 patients nitrendipine, 11 patients enalapril)
# Protocol: A placebo-controlled, open clinical trial was carried out in male patients with slight-moderate AHT, defined as systolic blood pressure values (SAT) between 165 and 144 mmHg and diastolic blood pressure values (DAT) between 95 and 105 mmHg, taken in decubitus position after 5 minutes' rest.
# [3] = tested on: patients with congestive heart failure; settings: long-term treatment (over one year), cited from earlier work
# [4] = at 10 minutes; stable formulation of enalapril sodium salt according to EP-A-0545194; cited from earlier work
# [5] = 1 mg/kg p.o., 0 minutes following administration
# [6] = 1 mg/kg p.o., 5 minutes following administration
# [7] = 1 mg/kg p.o., 15 minutes following administration
# [8] = 1 mg/kg p.o., 30 minutes following administration
# [9] = 1 mg/kg p.o., 45 minutes following administration
# [10] = 1 mg/kg p.o., 60 minutes following administration
# [11] = 1 mg/kg p.o., 120 minutes following administration
# [12] = 1 mg/kg p.o., 240 minutes following administration
# [13] = 1 mg/kg p.o., 360 minutes following administration
# [14] = 1 mg/kg p.o., 540 minutes following administration
# [15] = 3 mg/kg p.o., 0 minutes following administration
# [16] = 3 mg/kg p.o., 5 minutes following administration
# [17] = 3 mg/kg p.o., 15 minutes following administration
# [18] = 3 mg/kg p.o., 30 minutes following administration
# [19] = 3 mg/kg p.o., 45 minutes following administration
# [20] = 3 mg/kg p.o., 60 minutes following administration
# [21] = 3 mg/kg p.o., 120 minutes following administration
# [22] = 3 mg/kg p.o., 240 minutes following administration
# [23] = 3 mg/kg p.o., 360 minutes following administration
# [24] = 3 mg/kg p.o., 540 minutes following administration
smiles,measurement,setting,value
"CCOC(=O)[C@H](CCc1ccccc1)N[C@@H](C)C(=O)N1CCC[C@H]1C(=O)O [enalapril, 1-(N-((S)-1-ethoxycarbonyl-3-fenilpropyl) -L-alanil)-L-prolina]",distolic arterial pressure,[1]; [5],138(5)
same,distolic arterial pressure,[1]; [6],138(3)
same,distolic arterial pressure,[1]; [7],123(1)
same,distolic arterial pressure,[1]; [8],116(4)
same,distolic arterial pressure,[1]; [9],117(1)
same,distolic arterial pressure,[1]; [10],109(1)
same,distolic arterial pressure,[1]; [11],116(5)
same,distolic arterial pressure,[1]; [12],116(3)
same,distolic arterial pressure,[1]; [13],117(2)
same,distolic arterial pressure,[1]; [14],126(4)
same,"blood pressure normalized, number of patients",[2],2 patients
same,improvement of mortality and morbidity rates,[3]; severe heart failure (CONSENSUS),approximately 30%
same,improvement of mortality and morbidity rates,[3]; slight and moderate heart failure (SOLVD),approximately 15%
same,dissolution rate of enalapril,[4],100%
"CCOC(=O)C1=C(C)NC(C)=C(C(=O)OC)C1c1cccc([N+](=O)[O-])c1 (racemic) [Nitrendipine, ethyl and methyl ester of the acid 1,4-dihydro-2,6-dimethyl-4-(3-nitrophenyl)-3,5-pyridindicarboxylic]",diastolic arterial pressure,[1]; [15],136(5)
same,systolic arterial pressure,[1]; [15],172(6)
same,diastolic arterial pressure,[1]; [16],105(1)
same,systolic arterial pressure,[1]; [16],119(2)
same,diastolic arterial pressure,[1]; [17],83(4)
same,systolic arterial pressure,[1]; [17],117(6)
same,diastolic arterial pressure,[1]; [18],84(2)
same,systolic arterial pressure,[1]; [18],112(4)
same,diastolic arterial pressure,[1]; [19],88(5)
same,systolic arterial pressure,[1]; [19],115(3)
same,diastolic arterial pressure,[1]; [20],92(1)
same,systolic arterial pressure,[1]; [20],119(6)
same,diastolic arterial pressure,[1]; [21],113(4)
same,systolic arterial pressure,[1]; [21],141(5)
same,diastolic arterial pressure,[1]; [22],128(3)
same,systolic arterial pressure,[1]; [22],163(2)
same,diastolic arterial pressure,[1]; [23],132(2)
same,systolic arterial pressure,[1]; [23],169(1)
same,diastolic arterial pressure,[1]; [24],131(5)
same,systolic arterial pressure,[1]; [24],160(5)
same,return to basal values following administration,"[1]; oral administration, 3 mg/kg",4 h
same,"blood pressure normalized, number of patients",[2],1 patients
"CCOC(=O)[C@H](CCc1ccccc1)N[C@@H](C)C(=O)N1CCC[C@H]1C(=O)O [Enalapril maleate, 1-(N-((S)-1-ethoxycarbonyl-3-fenilpropyl) -L-alanil)-L-prolina]",systolic arterial pressure,[1]; [5],168(6)
same,systolic arterial pressure,[1]; [6],165(5)
same,systolic arterial pressure,[1]; [7],144(2)
same,systolic arterial pressure,[1]; [8],139(3)
same,systolic arterial pressure,[1]; [9],139(6)
same,systolic arterial pressure,[1]; [10],134(1)
same,systolic arterial pressure,[1]; [11],141(3)
same,systolic arterial pressure,[1]; [12],146(1)
same,systolic arterial pressure,[1]; [13],148(4)
same,systolic arterial pressure,[1]; [14],165(6)
same,antihypertensive effect,"[1]; oral administration, 1 mg/kg",moderate antihypertensive effect
same,antihypertensive effect sustained following administration,"[1]; oral administration, 1 mg/kg",up to 6 hours
